Source: article PMC4767141, “Discovery of Potent, Orally Bioavailable, Small-Molecule Inhibitors of WNT Signaling from a Cell-Based Pathway Screen” (Journal of Medicinal Chemistry, 2015)

Legend:
Clint determination = type: in vitro ADME; conditions: rat, microsomes, pH 7.4, rat microsomes, read-out: Clint (μL/min/mg) Rat
Cl- channel (GABA-gated) = assay: CEREP binding panel; conditions: 10 μM, antagonist radioligand
HCK = target: T1, HCK (Homo sapiens, UniProt P08631); assay: Millipore kinase panel; type: biochemical; conditions: ATP at Km, read-out: % Control
T1 construct: purchased Millipore KinaseProfiler (kinases); Cerep (receptors and ion channels)

DDR2 = target: T2, DDR2 (Homo sapiens, UniProt Q16832); assay: Millipore kinase panel; type: biochemical; conditions: read-out: % Control
T2 construct: purchased Millipore KinaseProfiler (kinases); Cerep (receptors and ion channels)

PI3K DELTA = target: T3, PI3K DELTA (Homo sapiens, UniProt O00329); assay: Millipore kinase panel; type: biochemical; conditions: read-out: % Control
T3 construct: purchased Millipore KinaseProfiler (kinases); Cerep (receptors and ion channels)

PI3K GAMMA = target: T4, PI3K GAMMA (Homo sapiens, UniProt P48736); assay: Millipore kinase panel; type: biochemical; conditions: read-out: % Control
T4 construct: purchased Millipore KinaseProfiler (kinases); Cerep (receptors and ion channels)

PKBBETA = target: T5, PKBBETA (Homo sapiens, UniProt P31751); assay: Millipore kinase panel; type: biochemical; conditions: read-out: % Control
T5 construct: purchased Millipore KinaseProfiler (kinases); Cerep (receptors and ion channels)

PKCGAMMA = target: T6, PKCGAMMA (Homo sapiens, UniProt P05129); assay: Millipore kinase panel; type: biochemical; conditions: read-out: % Control
T6 construct: purchased Millipore KinaseProfiler (kinases); Cerep (receptors and ion channels)

SAPK2A(T106M) = target: T7, SAPK2A(T106M) (Homo sapiens, UniProt Q16539, T106M); assay: Millipore kinase panel; type: biochemical; conditions: read-out: % Control
T7 construct: purchased Millipore KinaseProfiler (kinases); Cerep (receptors and ion channels)

CK1GAMMA3 = target: T8, CK1GAMMA3 (Homo sapiens, UniProt Q9Y6M4); assay: Millipore kinase panel; type: biochemical; conditions: read-out: % Control
T8 construct: purchased Millipore KinaseProfiler (kinases); Cerep (receptors and ion channels)

CAMKIDELTA = target: T9, CAMKIDELTA (Homo sapiens, UniProt Q8IU85); assay: Millipore kinase panel; type: biochemical; conditions: read-out: % Control
T9 construct: purchased Millipore KinaseProfiler (kinases); Cerep (receptors and ion channels)

CKIT(V654A) = target: T10, CKIT(V654A) (Homo sapiens, UniProt P10721, V654A); assay: Millipore kinase panel; type: biochemical; conditions: read-out: % Control
T10 construct: purchased Millipore KinaseProfiler (kinases); Cerep (receptors and ion channels)

FGFR2(N549H) = target: T11, FGFR2(N549H) (Homo sapiens, UniProt P21802, N549H); assay: Millipore kinase panel; type: biochemical; conditions: read-out: % Control
T11 construct: purchased Millipore KinaseProfiler (kinases); Cerep (receptors and ion channels)

BTK(R28H) = target: T12, BTK(R28H) (Homo sapiens, UniProt Q06187, R28H); assay: Millipore kinase panel; type: biochemical; conditions: read-out: % Control
T12 construct: purchased Millipore KinaseProfiler (kinases); Cerep (receptors and ion channels)

RET(V804M) = target: T13, RET(V804M) (Homo sapiens, UniProt P07949, V804M); assay: Millipore kinase panel; type: biochemical; conditions: read-out: % Control
T13 construct: purchased Millipore KinaseProfiler (kinases); Cerep (receptors and ion channels)

TIE2(R849W) = target: T14, TIE2(R849W) (Homo sapiens, UniProt Q02763, R849W); assay: Millipore kinase panel; type: biochemical; conditions: read-out: % Control
T14 construct: purchased Millipore KinaseProfiler (kinases); Cerep (receptors and ion channels)

CK1(Y) = assay: Millipore kinase panel; type: biochemical; conditions: 1 μM, ATP at Km
Procedure: (§1) Supplementary Table S3. Activity of compound 44 tested 1 μM across a panel of 209 non-mutated kinases (Millipore Panel: data expressed as percentage control response versus each kinase tested at its respective Km for ATP). No inhibition was considered sufficient to warrant follow-up with IC50 determination.
(§2) % Inhibition of % Inhibition of […]
(§3) α1 (non-selective) (antagonist radioligand) 8 NTS1 (NT1) (h) (agonist radioligand) -8 α2 (non-selective) (antagonist radioligand) 0 δ2 (DOP) (h) (agonist radioligand) 22 β1 (h) (agonist radioligand) 5 κ (KOP) (agonist radioligand) 72 […]
(§4) AT1 (h) (antagonist radioligand) 8 NOP (ORL1) (h) (agonist radioligand) 3 BZD (central) (agonist radioligand) 18 TP (h) (TXA2/PGH2) (antagonist radioligand) NT B2 (h) (agonist radioligand) 0 5-HT1A (h) (agonist radioligand) 19 […]
(§5) CCK1 (CCKA) (h) (agonist radioligand) 2 5-HT2A (h) (antagonist radioligand) 1 D1 (h) (antagonist radioligand) 7 5-HT2B (h) (agonist radioligand) 6
(§6) D2S (h) (antagonist radioligand) 5 5-HT3 (h) (antagonist radioligand) 9 ETA (h) (agonist radioligand) -9 5-HT5a (h) (agonist radioligand) 1
(§7) GABA (non-selective) (agonist radioligand) 5 5-HT6 (h) (agonist radioligand) 3 GAL2 (h) (agonist radioligand) 2 5-HT7 (h) (agonist radioligand) 1
(§8) CXCR2 (IL-8B) (h) (agonist radioligand) -6 sst (non-selective) (agonist radioligand) 4 CCR1 (h) (agonist radioligand) -4 VPAC1 (VIP1) (h) (agonist radioligand) 0 H1 (h) (antagonist radioligand) 16 V1a (h) (agonist radioligand) -7
(§9) H2 (h) (antagonist radioligand) -2 Ca2+ channel (L, verapamil site) (phenylalkylamine) (antagonist radioligand) 7 MC4 (h) (agonist radioligand) 4 KV channel (antagonist radioligand) -13 MT1 (ML1A) (h) (agonist radioligand) 34 SKCa channel (antagonist radioligand) 3 M1 (h) (antagonist radioligand) 21 Na+ channel (site 2) (antagonist radioligand) 29 M2 (h) (antagonist radioligand) 38 Cl- channel (GABA-gated) (antagonist radioligand) 31 M3 (h) (antagonist radioligand) 46 norepinephrine transporter (h) (antagonist radioligand) 14 NK2 (h) (agonist radioligand) -17 dopamine transporter (h) (antagonist radioligand) 40 5-HT transporter (h) (antagonist radioligand) 70 […]
(§10) receptors, ion channels and enzymes (CEREP). Results are expressed as percent inhibition of control specific binding. […]
(§11) kinases (Millipore Panel: data expressed as percentage control response versus each kinase tested […]
(§12) at its respective Km for ATP).
(§13) Supplementary Figure S1. Dose-dependent reduction of endogenous cMYC mRNA measured by RT-PCR (n = 8) after treatment of 7dF3 cells with 74 at the stated concentration for 2 h […]

[1] = test system: PI3 KINASE (P110A(E542K)/P85A); assay: Millipore kinase panel; type: biochemical; conditions: 1 μM, ATP at Km
Procedure: as §1, §2, §3, §4, §5, §6, §7, §8, §9, §10, §11, §12, §13

[2] = test system: PI3 KINASE (P110A(E545K)/P85A); assay: Millipore kinase panel; type: biochemical; conditions: 1 μM, ATP at Km
Procedure: as §1, §2, §3, §4, §5, §6, §7, §8, §9, §10, §11, §12, §13

[3] = test system: PI3 KINASE (P110A(H1047R)/P85A); assay: Millipore kinase panel; type: biochemical; conditions: 1 μM, ATP at Km
Procedure: as §1, §2, §3, §4, §5, §6, §7, §8, §9, §10, §11, §12, §13

PI3 KINASE (P110A/P65A) = assay: Millipore kinase panel; type: biochemical; conditions: 1 μM, ATP at Km
Procedure: as §1, §2, §3, §4, §5, §6, §7, §8, §9, §10, §11, §12, §13

PI3 KINASE (P110B/P85A) = assay: Millipore kinase panel; type: biochemical; conditions: 1 μM, ATP at Km
Procedure: as §1, §2, §3, §4, §5, §6, §7, §8, §9, §10, §11, §12, §13

PI3 KINASE (P110D/P85A) = assay: Millipore kinase panel; type: biochemical; conditions: 1 μM, ATP at Km
Procedure: as §1, §2, §3, §4, §5, §6, §7, §8, §9, §10, §11, §12, §13

PI3 KINASE (P65A) = assay: Millipore kinase panel; type: biochemical; conditions: 1 μM, ATP at Km
Procedure: as §1, §2, §3, §4, §5, §6, §7, §8, §9, §10, §11, §12, §13

PI3 KINASE (P85A) = assay: Millipore kinase panel; type: biochemical; conditions: 1 μM, ATP at Km
Procedure: as §1, §2, §3, §4, §5, §6, §7, §8, §9, §10, §11, §12, §13

FMS(Y969C) = target: T15, FMS(Y969C) (Homo sapiens, UniProt P07333, Y969C); assay: Millipore kinase panel; type: biochemical; conditions: read-out: % Control
T15 construct: purchased Millipore KinaseProfiler (kinases); Cerep (receptors and ion channels)
T15 sequence (P07333 20-972 Y969C): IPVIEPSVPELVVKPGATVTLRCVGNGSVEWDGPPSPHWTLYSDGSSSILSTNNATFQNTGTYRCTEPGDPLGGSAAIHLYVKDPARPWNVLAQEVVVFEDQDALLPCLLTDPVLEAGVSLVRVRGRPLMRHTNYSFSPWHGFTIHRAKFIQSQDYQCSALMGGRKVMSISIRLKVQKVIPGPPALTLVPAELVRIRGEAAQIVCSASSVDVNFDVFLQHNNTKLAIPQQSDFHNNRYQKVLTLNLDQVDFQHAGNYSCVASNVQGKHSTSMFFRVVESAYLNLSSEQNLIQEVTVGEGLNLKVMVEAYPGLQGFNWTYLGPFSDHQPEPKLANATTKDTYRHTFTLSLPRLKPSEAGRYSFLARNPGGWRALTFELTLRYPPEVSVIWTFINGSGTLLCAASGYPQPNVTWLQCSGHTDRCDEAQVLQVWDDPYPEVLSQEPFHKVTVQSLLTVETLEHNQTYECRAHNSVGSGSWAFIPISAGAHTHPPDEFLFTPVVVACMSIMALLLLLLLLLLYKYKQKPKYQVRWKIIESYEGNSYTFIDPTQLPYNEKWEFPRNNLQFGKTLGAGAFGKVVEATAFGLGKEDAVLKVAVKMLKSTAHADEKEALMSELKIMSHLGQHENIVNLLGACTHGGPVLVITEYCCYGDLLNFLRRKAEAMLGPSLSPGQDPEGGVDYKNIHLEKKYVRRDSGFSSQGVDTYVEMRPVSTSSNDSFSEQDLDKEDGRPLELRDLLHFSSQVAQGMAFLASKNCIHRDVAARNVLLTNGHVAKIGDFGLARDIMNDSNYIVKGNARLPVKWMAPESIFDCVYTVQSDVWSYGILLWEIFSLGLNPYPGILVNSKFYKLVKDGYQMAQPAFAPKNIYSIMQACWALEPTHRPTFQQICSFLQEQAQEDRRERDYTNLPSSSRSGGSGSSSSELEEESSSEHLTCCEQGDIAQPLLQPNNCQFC

T2 sequence (Q16832 22-855): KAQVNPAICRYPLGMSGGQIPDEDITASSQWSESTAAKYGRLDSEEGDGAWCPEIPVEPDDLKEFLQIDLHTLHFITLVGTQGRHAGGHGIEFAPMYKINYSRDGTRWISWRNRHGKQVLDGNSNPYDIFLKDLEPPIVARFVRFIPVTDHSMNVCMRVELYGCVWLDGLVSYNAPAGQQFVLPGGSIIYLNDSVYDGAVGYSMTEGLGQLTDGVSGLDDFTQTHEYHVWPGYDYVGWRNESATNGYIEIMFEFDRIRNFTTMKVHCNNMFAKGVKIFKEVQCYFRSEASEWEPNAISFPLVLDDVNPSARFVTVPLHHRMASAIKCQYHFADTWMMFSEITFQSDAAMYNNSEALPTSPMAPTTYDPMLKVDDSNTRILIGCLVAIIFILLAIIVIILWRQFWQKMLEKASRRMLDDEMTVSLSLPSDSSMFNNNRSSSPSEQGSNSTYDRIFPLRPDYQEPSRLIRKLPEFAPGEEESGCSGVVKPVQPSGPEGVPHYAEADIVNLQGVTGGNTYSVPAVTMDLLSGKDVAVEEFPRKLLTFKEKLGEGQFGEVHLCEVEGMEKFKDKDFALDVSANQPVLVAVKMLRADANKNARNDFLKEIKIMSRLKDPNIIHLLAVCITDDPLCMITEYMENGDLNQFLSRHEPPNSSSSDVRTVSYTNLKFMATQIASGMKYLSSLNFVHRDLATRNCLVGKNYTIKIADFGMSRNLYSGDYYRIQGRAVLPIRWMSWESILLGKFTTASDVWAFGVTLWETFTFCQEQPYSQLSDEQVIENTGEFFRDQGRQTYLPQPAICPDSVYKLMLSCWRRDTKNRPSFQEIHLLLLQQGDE
T1 sequence (P08631 whole entry): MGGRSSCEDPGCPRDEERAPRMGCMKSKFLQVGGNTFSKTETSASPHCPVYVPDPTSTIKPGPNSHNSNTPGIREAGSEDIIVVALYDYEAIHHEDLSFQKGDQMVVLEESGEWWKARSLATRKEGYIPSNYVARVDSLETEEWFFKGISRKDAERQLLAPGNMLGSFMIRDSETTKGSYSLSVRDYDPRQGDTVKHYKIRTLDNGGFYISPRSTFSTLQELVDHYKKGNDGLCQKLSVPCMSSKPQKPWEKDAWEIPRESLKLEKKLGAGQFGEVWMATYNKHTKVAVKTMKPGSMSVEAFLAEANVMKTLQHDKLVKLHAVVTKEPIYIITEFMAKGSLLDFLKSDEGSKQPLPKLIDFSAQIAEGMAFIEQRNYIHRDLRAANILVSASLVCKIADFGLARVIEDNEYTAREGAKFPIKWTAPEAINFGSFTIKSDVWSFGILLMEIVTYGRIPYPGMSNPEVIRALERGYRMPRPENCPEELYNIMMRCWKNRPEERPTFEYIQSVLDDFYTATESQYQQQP
T3 sequence (O00329 whole entry): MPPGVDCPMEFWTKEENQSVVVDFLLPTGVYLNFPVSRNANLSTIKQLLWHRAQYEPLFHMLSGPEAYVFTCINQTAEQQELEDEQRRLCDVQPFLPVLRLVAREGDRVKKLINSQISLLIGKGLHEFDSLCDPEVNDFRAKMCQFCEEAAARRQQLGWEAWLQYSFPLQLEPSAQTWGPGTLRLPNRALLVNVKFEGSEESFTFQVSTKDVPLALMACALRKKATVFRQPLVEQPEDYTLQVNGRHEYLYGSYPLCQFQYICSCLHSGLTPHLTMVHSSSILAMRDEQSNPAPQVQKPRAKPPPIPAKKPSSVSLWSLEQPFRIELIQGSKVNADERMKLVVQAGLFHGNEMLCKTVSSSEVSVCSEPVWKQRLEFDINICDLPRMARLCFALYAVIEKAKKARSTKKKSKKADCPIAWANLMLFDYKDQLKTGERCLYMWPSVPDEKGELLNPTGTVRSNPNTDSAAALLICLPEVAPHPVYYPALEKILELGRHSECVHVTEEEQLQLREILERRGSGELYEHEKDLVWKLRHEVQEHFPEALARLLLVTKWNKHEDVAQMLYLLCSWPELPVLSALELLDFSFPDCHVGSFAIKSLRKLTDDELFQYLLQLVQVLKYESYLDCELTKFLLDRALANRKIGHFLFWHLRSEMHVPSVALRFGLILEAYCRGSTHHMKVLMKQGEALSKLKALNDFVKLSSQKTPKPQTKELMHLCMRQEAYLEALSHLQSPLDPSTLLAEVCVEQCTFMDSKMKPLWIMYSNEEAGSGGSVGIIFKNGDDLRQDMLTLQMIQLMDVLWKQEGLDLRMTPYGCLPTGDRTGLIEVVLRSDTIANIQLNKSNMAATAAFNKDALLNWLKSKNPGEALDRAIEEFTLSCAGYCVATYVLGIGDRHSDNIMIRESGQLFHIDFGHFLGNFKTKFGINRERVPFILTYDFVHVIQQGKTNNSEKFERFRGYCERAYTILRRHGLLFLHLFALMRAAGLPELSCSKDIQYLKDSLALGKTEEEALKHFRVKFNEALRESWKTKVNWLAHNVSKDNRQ
T3 sequence (P27986 whole entry partner): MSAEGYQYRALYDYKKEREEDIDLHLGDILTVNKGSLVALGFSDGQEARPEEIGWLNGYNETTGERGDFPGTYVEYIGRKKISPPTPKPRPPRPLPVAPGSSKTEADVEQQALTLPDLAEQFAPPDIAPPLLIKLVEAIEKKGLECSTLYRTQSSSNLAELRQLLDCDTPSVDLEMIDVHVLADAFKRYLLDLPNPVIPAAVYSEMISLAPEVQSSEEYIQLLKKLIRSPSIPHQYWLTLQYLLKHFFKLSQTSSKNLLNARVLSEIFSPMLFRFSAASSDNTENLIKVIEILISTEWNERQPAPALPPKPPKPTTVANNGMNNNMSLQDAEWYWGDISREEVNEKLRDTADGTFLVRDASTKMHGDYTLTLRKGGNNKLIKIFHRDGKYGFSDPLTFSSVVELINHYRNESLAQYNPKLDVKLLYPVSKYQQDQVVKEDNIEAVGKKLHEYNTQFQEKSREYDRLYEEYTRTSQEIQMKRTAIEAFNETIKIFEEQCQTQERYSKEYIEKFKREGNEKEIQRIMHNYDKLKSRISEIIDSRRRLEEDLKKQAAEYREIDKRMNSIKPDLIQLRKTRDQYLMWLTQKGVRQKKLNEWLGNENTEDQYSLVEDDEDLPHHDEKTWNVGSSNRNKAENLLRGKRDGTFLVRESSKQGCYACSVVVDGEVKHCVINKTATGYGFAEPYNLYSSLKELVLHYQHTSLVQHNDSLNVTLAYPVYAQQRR
T11 sequence (P21802 22-821 N549H): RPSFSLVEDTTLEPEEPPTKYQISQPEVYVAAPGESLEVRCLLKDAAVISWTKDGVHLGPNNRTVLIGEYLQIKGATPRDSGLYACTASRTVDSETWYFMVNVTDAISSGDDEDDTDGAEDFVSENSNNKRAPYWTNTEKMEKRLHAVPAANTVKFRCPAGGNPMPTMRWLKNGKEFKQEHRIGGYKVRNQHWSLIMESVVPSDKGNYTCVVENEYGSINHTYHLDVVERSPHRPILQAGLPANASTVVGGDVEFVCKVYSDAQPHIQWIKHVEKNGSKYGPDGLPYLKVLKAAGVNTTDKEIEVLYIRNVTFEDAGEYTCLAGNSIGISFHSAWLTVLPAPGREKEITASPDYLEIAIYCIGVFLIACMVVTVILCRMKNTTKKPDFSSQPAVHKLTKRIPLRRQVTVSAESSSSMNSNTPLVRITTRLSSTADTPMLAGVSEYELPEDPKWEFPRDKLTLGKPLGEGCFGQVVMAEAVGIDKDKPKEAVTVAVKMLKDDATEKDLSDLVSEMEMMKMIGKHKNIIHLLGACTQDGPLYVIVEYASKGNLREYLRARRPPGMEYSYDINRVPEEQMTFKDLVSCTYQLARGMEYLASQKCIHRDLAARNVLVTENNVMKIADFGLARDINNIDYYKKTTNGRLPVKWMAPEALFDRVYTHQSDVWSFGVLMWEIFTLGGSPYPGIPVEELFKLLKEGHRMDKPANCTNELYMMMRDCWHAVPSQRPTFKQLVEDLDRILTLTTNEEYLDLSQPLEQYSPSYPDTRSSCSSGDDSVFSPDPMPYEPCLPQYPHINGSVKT

Question: What does the source list for `O=C1NCCC12CCN(c1c(Cl)cncc1-c1ccc(N3CCOCC3)cc1)CC2` [Compound 44, 8-(3-Chloro-5-(4-morpholin-4-ylphenyl)pyridin-4-yl)-2,8-diazaspiro[4.5]decan-1-one]?
Answer: microsomal CLint at 1 μM (Clint determination): 41 µL/min/mg; % Inhibition of Control Specific Binding (Cl- channel (GABA-gated)): 14%; remaining activity at 1 µM (HCK): 3%

Question: With `Cn1cc(-c2ccc(-c3cncc(Cl)c3N3CCC4(CCNC4=O)CC3)cc2)cn1` [Compound 74, 8-(3-Chloro-5-(4-(1-methyl-1H-pyrazol-4-yl)phenyl)pyridin-4-yl)-2,8-diazaspiro[4.5]decan-1-one] as the molecule, how does the remaining activity at 1 µM (DDR2) read?
Answer: 5%

Question: And the remaining activity at 1 µM (PI3K DELTA)?
Answer: -2%

Question: What about the remaining activity at 1 µM (PI3K GAMMA) of the same molecule?
Answer: 2%

Question: And the remaining activity at 1 µM (PKBBETA)?
Answer: -13%

Question: What about the remaining activity at 1 µM (PKCGAMMA) of the same molecule?
Answer: 2%

Question: And the remaining activity at 1 µM (SAPK2A(T106M))?
Answer: -8%

Question: What about the remaining activity at 1 µM (CK1GAMMA3) of the same molecule?
Answer: 1%

Question: And the remaining activity at 1 µM (CAMKIDELTA)?
Answer: -4%

Question: And the remaining activity at 1 µM (CKIT(V654A))?
Answer: -16%

Question: And the remaining activity at 1 µM (FGFR2(N549H))?
Answer: 1%

Question: And the remaining activity at 1 µM (BTK(R28H))?
Answer: -4%

Question: And the remaining activity at 1 µM (RET(V804M))?
Answer: -8%

Question: What about the remaining activity at 1 µM (TIE2(R849W)) of the same molecule?
Answer: -6%

Question: And the “% Control” value (CK1(Y))?
Answer: -4%

Question: What about the “% Control” value [1] of the same molecule?
Answer: 0%

Question: What about the “% Control” value [2] of the same molecule?
Answer: -1%

Question: What about the “% Control” value [3] of the same molecule?
Answer: 2%

Question: What about the “% Control” value (PI3 KINASE (P110A/P65A)) of the same molecule?
Answer: 0%

Question: What about the “% Control” value (PI3 KINASE (P110B/P85A)) of the same molecule?
Answer: -1%

Question: What about the “% Control” value (PI3 KINASE (P110D/P85A)) of the same molecule?
Answer: 0%

Question: And the “% Control” value (PI3 KINASE (P65A))?
Answer: 0%

Question: And the “% Control” value (PI3 KINASE (P85A))?
Answer: -1%

Question: And the remaining activity at 1 µM (FMS(Y969C))?
Answer: -31%
